The results in this text go back to ChEMBL document CHEMBL5653615 (J Biol Chem, 2013).

In test [1] the target is Proto-oncogene tyrosine-protein kinase Src (Homo sapiens) (UniProt P12931). The test can be described thus: Inhibition of human c-Src at 500 nM by HotSpot assay relative to control.
The target in test [2] is Ephrin type-A receptor 2 (Homo sapiens) (UniProt P29317). Nature of the test: Inhibition of human EPHA2 at 500 nM by HotSpot assay relative to control.
The target of test [3] is Fibroblast growth factor receptor 1 (Homo sapiens) (UniProt P11362). The test can be described thus: Inhibition of human FGFR1 at 500 nM by HotSpot assay relative to control.
The target of test [4] is T1, Inhibitor of nuclear factor kappa-B kinase subunit alpha (Homo sapiens) (UniProt O15111).
T1 sequence (whole entry): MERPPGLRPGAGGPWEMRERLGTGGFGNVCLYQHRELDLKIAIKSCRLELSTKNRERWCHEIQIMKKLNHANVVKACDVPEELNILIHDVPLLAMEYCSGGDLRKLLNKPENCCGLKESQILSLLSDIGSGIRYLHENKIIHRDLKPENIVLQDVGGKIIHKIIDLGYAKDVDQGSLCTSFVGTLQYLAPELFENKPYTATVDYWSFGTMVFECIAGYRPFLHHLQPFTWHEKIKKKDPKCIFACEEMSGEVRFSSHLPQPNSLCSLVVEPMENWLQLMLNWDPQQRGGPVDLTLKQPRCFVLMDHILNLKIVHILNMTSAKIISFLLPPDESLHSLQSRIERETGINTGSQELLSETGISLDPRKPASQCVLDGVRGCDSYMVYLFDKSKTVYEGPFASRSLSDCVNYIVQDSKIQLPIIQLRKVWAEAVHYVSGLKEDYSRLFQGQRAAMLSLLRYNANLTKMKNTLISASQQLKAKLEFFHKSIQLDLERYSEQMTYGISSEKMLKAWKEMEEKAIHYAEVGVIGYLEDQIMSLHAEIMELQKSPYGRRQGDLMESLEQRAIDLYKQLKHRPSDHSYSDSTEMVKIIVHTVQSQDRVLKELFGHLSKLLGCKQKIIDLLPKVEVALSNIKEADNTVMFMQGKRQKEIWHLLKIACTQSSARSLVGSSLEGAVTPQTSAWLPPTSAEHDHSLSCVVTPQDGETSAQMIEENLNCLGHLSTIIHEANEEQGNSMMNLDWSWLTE
Nature of the test: Inhibition of human IKKa at 500 nM by HotSpot assay relative to control.

The target in test [5] is Insulin receptor-related protein (Homo sapiens) (UniProt P14616). Nature of the test: Inhibition of human IRR at 500 nM by HotSpot assay relative to control.
For test [6], the target named is Myosin light chain kinase 2, skeletal/cardiac muscle (Homo sapiens) (UniProt Q9H1R3). The test can be described thus: Inhibition of human MYLK2 at 500 nM by HotSpot assay relative to control.
Test [7] has as its target T2, Serine/threonine-protein kinase 4 (Homo sapiens) (UniProt Q13043).
T2 sequence (whole entry): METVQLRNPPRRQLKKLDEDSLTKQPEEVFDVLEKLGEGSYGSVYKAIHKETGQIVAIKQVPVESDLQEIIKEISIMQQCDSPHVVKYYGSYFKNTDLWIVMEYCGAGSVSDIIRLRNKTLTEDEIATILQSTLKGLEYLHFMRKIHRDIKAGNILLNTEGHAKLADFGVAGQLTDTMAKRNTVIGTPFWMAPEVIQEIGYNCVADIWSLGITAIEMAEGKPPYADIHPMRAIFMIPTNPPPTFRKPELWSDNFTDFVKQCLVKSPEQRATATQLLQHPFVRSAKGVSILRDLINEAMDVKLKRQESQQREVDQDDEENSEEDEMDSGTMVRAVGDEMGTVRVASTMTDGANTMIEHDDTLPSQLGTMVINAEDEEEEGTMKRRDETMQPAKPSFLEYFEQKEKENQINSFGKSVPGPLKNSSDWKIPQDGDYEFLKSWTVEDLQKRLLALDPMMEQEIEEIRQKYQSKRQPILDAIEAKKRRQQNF
Nature of the test: Inhibition of human STK4 at 500 nM by HotSpot assay relative to control.

For test [8], the target named is T3, Serine/threonine-protein kinase TAO3 (Homo sapiens) (UniProt Q9H2K8).
T3 sequence (whole entry): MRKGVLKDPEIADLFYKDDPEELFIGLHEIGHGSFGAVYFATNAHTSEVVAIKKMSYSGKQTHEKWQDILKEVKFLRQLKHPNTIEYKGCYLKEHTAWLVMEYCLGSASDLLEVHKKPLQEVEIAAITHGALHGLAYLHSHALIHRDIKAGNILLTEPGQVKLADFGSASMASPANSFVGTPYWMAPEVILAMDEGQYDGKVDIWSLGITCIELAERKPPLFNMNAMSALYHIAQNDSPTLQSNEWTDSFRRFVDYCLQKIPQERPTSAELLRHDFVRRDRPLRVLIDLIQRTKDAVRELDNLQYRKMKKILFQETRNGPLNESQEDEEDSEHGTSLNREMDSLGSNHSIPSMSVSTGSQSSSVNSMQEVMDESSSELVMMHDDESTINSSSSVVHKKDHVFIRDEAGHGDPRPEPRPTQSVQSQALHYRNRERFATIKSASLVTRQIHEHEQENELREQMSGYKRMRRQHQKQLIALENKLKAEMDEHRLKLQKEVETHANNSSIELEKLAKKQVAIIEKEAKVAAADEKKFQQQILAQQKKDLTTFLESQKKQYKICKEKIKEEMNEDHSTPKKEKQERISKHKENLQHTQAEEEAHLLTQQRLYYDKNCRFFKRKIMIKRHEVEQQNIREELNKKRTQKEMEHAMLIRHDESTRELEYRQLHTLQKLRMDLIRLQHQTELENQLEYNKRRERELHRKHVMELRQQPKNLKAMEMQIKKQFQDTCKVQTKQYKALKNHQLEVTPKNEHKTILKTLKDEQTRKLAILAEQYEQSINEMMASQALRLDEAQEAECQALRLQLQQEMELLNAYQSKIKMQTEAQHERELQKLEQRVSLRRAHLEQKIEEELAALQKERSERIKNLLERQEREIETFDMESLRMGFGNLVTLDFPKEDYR
The test can be described thus: Inhibition of human JIK at 500 nM by HotSpot assay relative to control.

Test [9] deals with T4, Serine/threonine-protein kinase VRK1 (Homo sapiens) (UniProt Q99986).
T4 sequence (whole entry): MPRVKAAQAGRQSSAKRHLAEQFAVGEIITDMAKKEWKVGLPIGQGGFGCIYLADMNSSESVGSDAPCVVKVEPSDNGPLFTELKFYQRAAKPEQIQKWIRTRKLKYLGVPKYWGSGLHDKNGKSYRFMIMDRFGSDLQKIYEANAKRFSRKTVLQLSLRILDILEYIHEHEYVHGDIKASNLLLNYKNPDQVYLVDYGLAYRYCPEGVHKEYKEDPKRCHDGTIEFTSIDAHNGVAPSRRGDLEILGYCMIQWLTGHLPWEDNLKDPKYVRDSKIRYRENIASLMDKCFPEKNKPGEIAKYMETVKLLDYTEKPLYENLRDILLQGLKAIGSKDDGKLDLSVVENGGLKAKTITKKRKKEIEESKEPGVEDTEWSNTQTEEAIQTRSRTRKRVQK
The test can be described thus: Inhibition of human VRK1 at 500 nM by HotSpot assay relative to control.

Chain of Ephrin type-A receptor 2 (Homo sapiens) (P29317 whole entry): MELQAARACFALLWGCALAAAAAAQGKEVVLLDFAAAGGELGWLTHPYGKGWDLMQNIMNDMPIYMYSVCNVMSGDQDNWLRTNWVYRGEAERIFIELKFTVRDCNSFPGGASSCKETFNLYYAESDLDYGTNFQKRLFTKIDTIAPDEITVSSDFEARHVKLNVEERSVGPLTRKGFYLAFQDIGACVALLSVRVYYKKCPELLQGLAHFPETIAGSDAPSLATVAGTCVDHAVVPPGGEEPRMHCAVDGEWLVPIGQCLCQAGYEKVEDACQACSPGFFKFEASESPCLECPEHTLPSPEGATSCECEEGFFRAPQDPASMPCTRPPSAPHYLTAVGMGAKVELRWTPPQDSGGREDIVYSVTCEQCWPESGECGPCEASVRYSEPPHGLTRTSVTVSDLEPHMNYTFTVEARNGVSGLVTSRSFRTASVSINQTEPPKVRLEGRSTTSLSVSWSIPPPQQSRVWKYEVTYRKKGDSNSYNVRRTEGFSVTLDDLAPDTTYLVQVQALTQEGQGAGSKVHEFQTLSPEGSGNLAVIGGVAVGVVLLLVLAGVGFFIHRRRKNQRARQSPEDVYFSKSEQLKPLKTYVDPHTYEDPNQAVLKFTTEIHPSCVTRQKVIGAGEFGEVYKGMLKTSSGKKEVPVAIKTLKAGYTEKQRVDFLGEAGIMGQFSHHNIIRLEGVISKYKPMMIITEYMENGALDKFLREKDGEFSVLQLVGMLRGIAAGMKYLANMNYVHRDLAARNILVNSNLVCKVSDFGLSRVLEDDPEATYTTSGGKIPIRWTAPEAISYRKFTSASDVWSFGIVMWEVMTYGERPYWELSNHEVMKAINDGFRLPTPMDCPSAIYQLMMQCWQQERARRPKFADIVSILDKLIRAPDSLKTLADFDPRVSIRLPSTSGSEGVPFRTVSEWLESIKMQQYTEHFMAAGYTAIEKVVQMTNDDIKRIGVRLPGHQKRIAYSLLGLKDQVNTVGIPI
Chain of Fibroblast growth factor receptor 1 (Homo sapiens) (P11362 22-822 limits assumed): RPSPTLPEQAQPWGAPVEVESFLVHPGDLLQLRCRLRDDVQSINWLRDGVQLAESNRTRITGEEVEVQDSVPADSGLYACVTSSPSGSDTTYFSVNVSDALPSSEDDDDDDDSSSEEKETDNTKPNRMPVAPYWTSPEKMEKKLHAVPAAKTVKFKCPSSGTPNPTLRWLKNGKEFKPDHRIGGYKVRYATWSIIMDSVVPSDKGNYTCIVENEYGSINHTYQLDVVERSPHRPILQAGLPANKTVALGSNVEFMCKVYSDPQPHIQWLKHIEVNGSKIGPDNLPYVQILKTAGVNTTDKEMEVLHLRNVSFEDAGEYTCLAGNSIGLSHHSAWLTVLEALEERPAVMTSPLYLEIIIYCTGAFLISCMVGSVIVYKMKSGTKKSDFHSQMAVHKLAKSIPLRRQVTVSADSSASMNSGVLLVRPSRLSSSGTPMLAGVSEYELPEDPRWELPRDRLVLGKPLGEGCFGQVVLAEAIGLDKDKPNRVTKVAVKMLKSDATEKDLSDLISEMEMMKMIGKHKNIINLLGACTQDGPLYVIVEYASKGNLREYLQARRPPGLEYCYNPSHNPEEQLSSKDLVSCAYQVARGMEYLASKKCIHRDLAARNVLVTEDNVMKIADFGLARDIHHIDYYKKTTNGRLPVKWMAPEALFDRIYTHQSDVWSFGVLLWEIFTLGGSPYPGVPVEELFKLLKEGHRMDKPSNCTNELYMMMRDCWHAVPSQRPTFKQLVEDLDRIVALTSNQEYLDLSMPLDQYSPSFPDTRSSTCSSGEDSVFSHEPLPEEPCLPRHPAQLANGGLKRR
Chain of Insulin receptor-related protein (Homo sapiens) (P14616 27-742 limits assumed): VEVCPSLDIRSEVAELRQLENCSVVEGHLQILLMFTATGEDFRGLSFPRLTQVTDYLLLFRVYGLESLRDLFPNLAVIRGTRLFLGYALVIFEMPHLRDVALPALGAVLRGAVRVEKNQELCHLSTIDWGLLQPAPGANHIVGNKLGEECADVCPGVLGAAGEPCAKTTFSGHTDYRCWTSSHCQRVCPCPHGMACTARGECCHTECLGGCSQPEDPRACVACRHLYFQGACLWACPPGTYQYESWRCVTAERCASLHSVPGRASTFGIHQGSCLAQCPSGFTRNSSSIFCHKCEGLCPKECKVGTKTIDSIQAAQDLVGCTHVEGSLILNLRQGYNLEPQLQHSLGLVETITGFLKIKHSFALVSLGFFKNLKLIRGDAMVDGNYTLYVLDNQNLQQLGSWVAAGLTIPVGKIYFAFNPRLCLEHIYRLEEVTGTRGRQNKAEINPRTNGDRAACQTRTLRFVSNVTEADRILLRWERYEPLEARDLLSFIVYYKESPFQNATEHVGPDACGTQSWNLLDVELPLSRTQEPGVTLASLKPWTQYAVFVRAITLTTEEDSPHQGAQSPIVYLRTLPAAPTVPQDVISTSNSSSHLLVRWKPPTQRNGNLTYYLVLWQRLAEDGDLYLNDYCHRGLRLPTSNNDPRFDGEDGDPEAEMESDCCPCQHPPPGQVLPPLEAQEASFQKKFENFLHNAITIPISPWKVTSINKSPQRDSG
Chain of Insulin receptor-related protein (Homo sapiens) (P14616 747-1297 limits assumed): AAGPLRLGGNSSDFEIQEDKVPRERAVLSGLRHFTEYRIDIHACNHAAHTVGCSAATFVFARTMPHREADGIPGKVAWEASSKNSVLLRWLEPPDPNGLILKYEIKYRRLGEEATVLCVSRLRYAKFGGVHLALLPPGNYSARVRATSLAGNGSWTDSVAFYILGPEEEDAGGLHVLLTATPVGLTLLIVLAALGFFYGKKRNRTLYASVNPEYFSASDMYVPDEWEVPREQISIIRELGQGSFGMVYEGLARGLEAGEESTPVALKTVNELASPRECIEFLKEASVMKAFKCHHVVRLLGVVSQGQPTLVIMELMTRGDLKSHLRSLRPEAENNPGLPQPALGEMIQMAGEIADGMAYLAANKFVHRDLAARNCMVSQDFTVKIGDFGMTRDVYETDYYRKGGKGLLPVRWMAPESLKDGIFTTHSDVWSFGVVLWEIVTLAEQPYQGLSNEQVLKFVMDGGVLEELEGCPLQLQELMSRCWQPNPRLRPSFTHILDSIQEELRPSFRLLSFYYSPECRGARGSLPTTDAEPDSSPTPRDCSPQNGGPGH
Chain of Myosin light chain kinase 2, skeletal/cardiac muscle (Homo sapiens) (Q9H1R3 whole entry): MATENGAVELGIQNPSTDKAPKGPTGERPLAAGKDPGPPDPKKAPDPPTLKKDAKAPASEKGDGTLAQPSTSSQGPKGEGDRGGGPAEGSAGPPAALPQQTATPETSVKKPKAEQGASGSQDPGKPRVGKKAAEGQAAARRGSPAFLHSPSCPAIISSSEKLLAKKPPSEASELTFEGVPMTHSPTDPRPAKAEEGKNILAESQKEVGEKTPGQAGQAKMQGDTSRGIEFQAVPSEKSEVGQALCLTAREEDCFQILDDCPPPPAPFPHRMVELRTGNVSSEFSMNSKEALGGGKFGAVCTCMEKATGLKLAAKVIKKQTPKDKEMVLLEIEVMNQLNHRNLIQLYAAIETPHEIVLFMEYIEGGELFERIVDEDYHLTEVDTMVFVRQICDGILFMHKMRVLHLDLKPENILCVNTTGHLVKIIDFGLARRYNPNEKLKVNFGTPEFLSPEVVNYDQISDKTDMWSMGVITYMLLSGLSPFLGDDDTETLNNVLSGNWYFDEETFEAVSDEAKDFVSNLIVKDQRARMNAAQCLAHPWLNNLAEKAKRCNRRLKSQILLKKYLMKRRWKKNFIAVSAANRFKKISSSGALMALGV
Chain of Proto-oncogene tyrosine-protein kinase Src (Homo sapiens) (P12931 2-536 limits assumed): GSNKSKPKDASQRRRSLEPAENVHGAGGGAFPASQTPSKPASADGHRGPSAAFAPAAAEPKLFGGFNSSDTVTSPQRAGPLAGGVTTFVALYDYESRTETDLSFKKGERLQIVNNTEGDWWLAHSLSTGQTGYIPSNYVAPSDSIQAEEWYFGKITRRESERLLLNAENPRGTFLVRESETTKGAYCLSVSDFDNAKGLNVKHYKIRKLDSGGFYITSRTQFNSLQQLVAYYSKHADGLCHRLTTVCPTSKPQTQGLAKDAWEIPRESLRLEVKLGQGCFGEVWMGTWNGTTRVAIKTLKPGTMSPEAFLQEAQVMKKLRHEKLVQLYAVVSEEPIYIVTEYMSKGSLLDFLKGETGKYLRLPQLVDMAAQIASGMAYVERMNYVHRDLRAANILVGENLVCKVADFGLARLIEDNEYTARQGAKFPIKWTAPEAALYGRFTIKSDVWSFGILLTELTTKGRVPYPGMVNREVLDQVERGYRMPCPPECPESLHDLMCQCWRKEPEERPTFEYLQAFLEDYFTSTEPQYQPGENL

As to `Nc1n[nH]c2nnc(-c3c(-c4ccccc4)nn4ccccc34)cc12`, the inhibition (usually the drop in the measured response relative to a control, in per cent) in test [1] is -0.45%; in test [2] it was 1.69%; in [3], 5.28%; in test [4] it was 2.52%; in [5], 4.29%; in [6] it was -0.61%. Moreover, the inhibition is 0.86% in test [7], -1.15% in test [8] and 7.83% in test [9].
As for `Oc1n[nH]c2nnc(-c3c(-c4ccccc4)nn4ccccc34)cc12`, the inhibition was -2.58% in test [1]; -0.91% in [2]; -1.96% in test [3]; -0.4% in test [4]; 13.8% in [5]; -2.71% in [6]. In addition, the inhibition in test [7] is -0.48%; in test [8] it was 4.08%; in test [9] it was 0.57%.
